These are literature values, as cited in patent US5674533A, “Pharmaceutical composition for the controlled release of moguisteine in a liquid suspension” (Recordati, S.A., Chemical And Pharmaceutical Company, priority 1994, dated 1997).

For data set [1] the following is noted: for antitussive activity of enantiomers: R(+) vs S(-).
For data set [2] the following is noted: in humans.
The subject of data set [3] is opioid receptors.
Data set [4] concerns rapidly adapting irritant receptors (RARs). The settings on record: peripheral site of action.
For data set [5] the following is noted: in vivo.
Assay in data set [6]: not given
The source holds these as a separate data set.

`CCOC(=O)CC(=O)N1CCSC1COc1ccccc1OC` (single isomer, unassigned) [S(-) enantiomer]: the “antitussive activity of enantiomers” value in data set [1] is “equivalent antitussive activity”.

Take `CCOC(=O)CC(=O)N1CCSC1COc1ccccc1OC` (racemic) [moguisteine, (R,S)-2-[(2-methoxyphenoxy)methyl-3-ethoxycarbonyl-1-acetyl]-1,3-thiazolidine]: the “solubility in aqueous fluids” value is “relatively insoluble in aqueous fluids”. Moreover, the half-life after administration entry in data set [2] is given as “less than one hour”. The “antitussive potency relative to codeine, dextromethorphan and zipripol” value in data set [1] (in vivo) was “as potent as codeine, dextromethorphan and zipripol”. The “antitussive potency relative to (D,L)-dropropizine” value in data set [1] (vs (D,L)-dropropizine) is given as 3-4 times more potent. In addition, the “action via opioid receptors” value in data set [3] is “does not act via opioid receptors”. In addition, the “interaction with RARs” value in data set [4] is reported as “interacts with the so-called "rapidly adapting irritant receptors" (RARs)”. Besides, in data set [5], the addiction result was “causes no addiction” and the “tolerability in high doses relative to codeine or dextromethorphan” value is listed as “better tolerated in high doses than codeine or dextromethorphan”.

Consider `COc1ccccc1OCC1SCCN1C(=O)CC(=O)O` (racemic) [active metabolite, (R,S)-2-[(methoxyphenoxy)methyl]-3-carboxyacetyl]-1,3 thiazolidine acid], for which, in data set [6] (after oral or intravenous administration of moguisteine), the “presence in biological fluids in measurable quantities” value is “only its active metabolite”. Also, in data set [6] (oral), the “rate of absorption relative to moguisteine” value is reported as “five times slower than moguisteine”.

Regarding `COc1ccc2c3c1O[C@H]1[C@@H](O)C=C[C@H]4[C@@H](C2)N(C)CC[C@@]341` [Codeine], in data set [5], the addiction result was “potentially causing addiction”.

`CCOC(=O)CC(=O)N1CCSC1COc1ccccc1OC` (single isomer, unassigned) [R(+) enantiomer]: in data set [1], the “antitussive activity of enantiomers” value was “equivalent antitussive activity”.
